Some test systems named below: 786-0; A498; A549; COLO 205; HCT-116; HCT-15; HOP-92; OVCAR-4; OVCAR-5; RPMI-8226; SK-MEL-28; SK-MEL-5; SK-OV-3; SW-620; U-251; UO-31; RXF 393; SR.
Holding throughout (test): DTP human tumour cell line panel, 48 h

Each structure is given as a SMILES string.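 Values below derive from 48-hour exposures of cells grown in 96-well plates, with endpoints linearly interpolated between the two concentrations bracketing the appropriate inhibition level. Here, GI50 denotes the concentration required for 50% inhibition of growth.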 Calls of active or inactive are those of the source. Cut-off read from the data, not from the text of the source: active = GI50 up to about 1.1 µM and inactive = higher. Bounds are passed on as bounds.

One may read the GI50 as the concentration that inhibits growth by half. As for `O=C(O)c1cc(S(=O)(=O)N/N=C\c2c3ccccc3[n+]([O-])c3ccccc23)ccc1O`, the GI50 in the assay on 786-0 was 11.7 µM (inactive); with A498, 14.1 µM (inactive); with A549, 22.7 µM (inactive); in the assay with COLO 205 it was 15.1 µM (inactive); in the assay with HCT-116 it was 7.55 µM (inactive); with HCT-15, 5.96 µM. For the same compound, the GI50 in the assay on HOP-92 is 9.64 µM (inactive); in the assay with OVCAR-4, 5.18 µM (inactive); in the assay on OVCAR-5 it was 30.7 µM (inactive); in the assay on RPMI-8226 it was 7.48 µM (inactive); in the assay with SK-MEL-28 it was 12.3 µM (inactive); in the assay on SK-MEL-5, 11.7 µM (inactive). Also, the GI50 in the assay with SK-OV-3 was 38.3 µM (inactive); in the assay with SW-620 it was 11.3 µM (inactive); in the assay with U-251 it was 23.2 µM (inactive); in the assay with UO-31 it was 17.7 µM (inactive).
On to `CCOP(=O)(OCC)C(C(=O)OC)C(=O)C(=O)Nc1ccc(Cl)cc1Cl` (configuration not stated), for which the GI50 in the assay on 786-0 is > 100 µM (inactive); in the assay with A498, > 100 µM (inactive); with A549, > 100 µM (inactive); with COLO 205, > 100 µM (inactive); with HCT-116, > 100 µM (inactive); in the assay with HCT-15, over 100 µM. The GI50 in the assay with HOP-92 is > 100 µM (inactive); with OVCAR-4 it was > 100 µM (inactive); in the assay on OVCAR-5 it was > 100 µM (inactive); with RPMI-8226, > 100 µM (inactive); in the assay with RXF 393, 65.3 µM (inactive); in the assay on SK-MEL-28, > 100 µM (inactive). For the same compound, the GI50 with SK-MEL-5, in the assay on SK-OV-3, in the assay on SW-620, in the assay with U-251 and in the assay with UO-31 was > 100 µM (inactive) throughout.
On to `NC(CCCNCc1ccccc1)C(=O)O` (configuration not stated), for which the GI50 in the assay on 786-0 is > 100 µM (inactive); in the assay on A498, > 100 µM (inactive); in the assay on A549 it was > 100 µM (inactive); in the assay with COLO 205 it was > 100 µM (inactive); in the assay with HCT-116 it was > 100 µM (inactive); in the assay with HCT-15, over 100 µM. Moreover, the GI50 in the assay with HOP-92, in the assay with OVCAR-4, with RPMI-8226, in the assay with SK-MEL-28, with SK-MEL-5 and in the assay on SK-OV-3 was > 100 µM (inactive) in each case. Further, the GI50 with SW-620 and with UO-31 was > 100 µM (inactive) throughout.
`CC1=Nn2c(nnc2-c2ccc(N)cc2)NC(C)(C)C1`: the GI50 is > 100 µM (inactive) with 786-0; > 100 µM (inactive) in the assay with A498; > 100 µM (inactive) with A549; > 100 µM (inactive) in the assay with COLO 205; over 100 µM in the assay on HCT-15; > 100 µM (inactive) in the assay on HOP-92. Further, the GI50 with OVCAR-4, with OVCAR-5, in the assay on RPMI-8226, with SK-MEL-28, in the assay with SK-MEL-5 and in the assay with SK-OV-3 was > 100 µM (inactive) each time. Besides, the GI50 with SW-620, with U-251 and in the assay on UO-31 was > 100 µM (inactive) each time.
Turning to `CCCCCCCCCCn1cccc1/C=C/c1ccc(/C=C/c2cccn2CCCCCCCCCC)cc1`, the GI50 with 786-0, in the assay with A498, in the assay on A549, with COLO 205, in the assay on HCT-116 and in the assay on HOP-92 was > 100 µM (inactive) each time. Besides, the GI50 with OVCAR-4, in the assay with OVCAR-5, in the assay with RPMI-8226, in the assay on RXF 393, in the assay with SK-MEL-28 and with SK-MEL-5 was > 100 µM (inactive) each time. For the same compound, the GI50 with SK-OV-3 is > 100 µM (inactive); in the assay on SW-620, > 100 µM (inactive); with U-251 it was > 100 µM (inactive); with UO-31, 88.7 µM (inactive).
As for `Cc1cc(C)nc(NS(=O)(=O)c2ccc(Nc3c4ccccc4nc4c(C(=O)Nc5ccc(S(=O)(=O)Nc6cc(C)on6)cc5)ccc(Cl)c34)cc2)n1`, the GI50 in the assay on 786-0 was 17.9 µM (inactive); in the assay with A498, 17.2 µM (inactive); with HCT-116, 17.7 µM (inactive); with HCT-15, 28.9 µM; in the assay with OVCAR-4 it was 28.6 µM (inactive); in the assay on OVCAR-5, 18.7 µM (inactive). The GI50 in the assay with RPMI-8226 is 20.6 µM (inactive); in the assay with RXF 393 it was 14.8 µM (inactive); in the assay on SK-MEL-28, 27.7 µM (inactive); in the assay with SK-OV-3, 69.7 µM (inactive); with SR it was 21.1 µM (inactive); with U-251, 15.9 µM (inactive). Besides, the GI50 with UO-31 was 20.8 µM (inactive).
With `O=C(O)CCNCCCCNCCC(=O)O`, the GI50 in the assay on 786-0 was > 100 µM (inactive); in the assay with A498, > 100 µM (inactive); in the assay on A549 it was > 100 µM (inactive); in the assay with COLO 205, > 100 µM (inactive); with HCT-116 it was > 100 µM (inactive); in the assay with HCT-15, over 100 µM. In addition, the GI50 in the assay on HOP-92, in the assay on OVCAR-4, in the assay on OVCAR-5, in the assay with RPMI-8226, in the assay with RXF 393 and in the assay on SK-MEL-28 was > 100 µM (inactive) throughout. The GI50 in the assay on SK-MEL-5, with SK-OV-3, in the assay with SW-620 and in the assay on U-251 was > 100 µM (inactive) in each case.
Consider `N#C/C(=C\c1cc(O)ccc1O)C(N)=O`, for which the GI50 was 29.4 µM (inactive) in the assay on 786-0; 41 µM (inactive) in the assay on A498; 78.5 µM (inactive) in the assay on A549; 33.3 µM (inactive) in the assay with COLO 205; 63.2 µM (inactive) in the assay on HCT-116; 44.2 µM in the assay on HCT-15. Moreover, the GI50 was 34.4 µM (inactive) with HOP-92; 54 µM (inactive) with OVCAR-4; > 100 µM (inactive) with OVCAR-5; 27.2 µM (inactive) in the assay with RPMI-8226; 19 µM (inactive) in the assay on RXF 393; 37.1 µM (inactive) in the assay on SK-MEL-28. Moreover, the GI50 in the assay on SK-OV-3 was 67.6 µM (inactive); in the assay with SW-620, 49.9 µM (inactive); with U-251 it was 98.4 µM (inactive); in the assay on UO-31, 35.7 µM (inactive).
As for `CCc1ccc(Cc2ccc(CC)c(NC(=O)C(=O)Cc3nc4ccccc4nc3C)c2CC)c(CC)c1NC(=O)C(=O)Cc1nc2ccccc2nc1C`, the GI50 is > 100 µM (inactive) with 786-0; > 100 µM (inactive) with A498; > 100 µM (inactive) with A549; > 100 µM (inactive) with COLO 205; 52.5 µM (inactive) with HCT-116; over 100 µM with HCT-15. Further, the GI50 in the assay with HOP-92 was 4.02 µM (inactive); with OVCAR-4, 72.3 µM (inactive); with OVCAR-5, > 100 µM (inactive); in the assay with RPMI-8226, > 100 µM (inactive); in the assay with RXF 393, 41.4 µM (inactive); in the assay on SK-MEL-28 it was 66.7 µM (inactive). In addition, the GI50 with SK-MEL-5 is > 100 µM (inactive); in the assay with SK-OV-3 it was > 100 µM (inactive); with SW-620, > 100 µM (inactive); in the assay on U-251, 49.7 µM (inactive); in the assay with UO-31, 17.7 µM (inactive).
With `COc1ccc(C=C(c2ccc(OCc3ccccc3)cc2)c2ccc(OCc3ccccc3)cc2)cc1`, the GI50 with 786-0 is > 100 µM (inactive); in the assay on A549, > 100 µM (inactive); with COLO 205, > 100 µM (inactive); in the assay with HCT-15, over 100 µM; in the assay on OVCAR-4, > 100 µM (inactive); with OVCAR-5, > 100 µM (inactive). Besides, the GI50 in the assay on RPMI-8226, in the assay on RXF 393, in the assay on SK-MEL-28, in the assay with SK-MEL-5, with SK-OV-3 and with SR was > 100 µM (inactive) throughout. The GI50 in the assay with SW-620, in the assay on U-251 and with UO-31 was > 100 µM (inactive) throughout.
On to `CCOC(=O)C(Cc1ccccc1)NC(=O)c1nc[nH]c1/N=N/N(C)C` (configuration not stated), for which the GI50 in the assay on 786-0 was > 100 µM (inactive); with A498 it was > 100 µM (inactive); with A549, > 100 µM (inactive); in the assay on COLO 205, > 100 µM (inactive); in the assay with HCT-116, > 100 µM (inactive); in the assay on HCT-15, over 100 µM. Also, the GI50 in the assay on OVCAR-4, in the assay on OVCAR-5, in the assay with RPMI-8226, in the assay on SK-MEL-28, in the assay with SK-MEL-5 and in the assay with SK-OV-3 was > 100 µM (inactive) throughout. The GI50 in the assay with SR, in the assay with SW-620, with U-251 and with UO-31 was > 100 µM (inactive) in each case.
As for `O=C1CCCCC12CCC/C2=N\O` (configuration not stated), the GI50 was > 100 µM (inactive) in the assay with 786-0; > 100 µM (inactive) in the assay with A498; > 100 µM (inactive) in the assay on A549; > 100 µM (inactive) in the assay on COLO 205; > 100 µM (inactive) with HCT-116; over 100 µM with HCT-15. The GI50 with OVCAR-4, with RPMI-8226, with RXF 393, in the assay on SK-MEL-28, in the assay on SK-MEL-5 and with SK-OV-3 was > 100 µM (inactive) each time. The GI50 in the assay on SR, in the assay with SW-620, in the assay with U-251 and in the assay with UO-31 was > 100 µM (inactive) each time.
Consider `Cc1c2ccncc2c(C)c2c1[nH]c1ccc(OC(C)(C)C)cc12`, for which the GI50 was 1.53 µM (inactive) in the assay with 786-0; 12.2 µM (inactive) in the assay with A498; 3.15 µM (inactive) with A549; 1.47 µM (inactive) in the assay with COLO 205; 1.67 µM (inactive) in the assay on HCT-116; 9.82 µM (inactive) in the assay on HOP-92. In addition, the GI50 was 1.98 µM (inactive) with OVCAR-4; 11.7 µM (inactive) in the assay with OVCAR-5; 2.08 µM (inactive) with RPMI-8226; 1.76 µM (inactive) in the assay with SK-MEL-28; 2.14 µM (inactive) in the assay with SK-MEL-5; 4.42 µM (inactive) in the assay on SK-OV-3. Also, the GI50 in the assay with SW-620 is 2.14 µM (inactive); in the assay with U-251, 2.82 µM (inactive); in the assay with UO-31 it was 1.91 µM (inactive).
